In patent publication US20250143304A1, “INSECT, ACARINA AND NEMATODE PEST CONTROL” (SYNGENTA CROP PROTECTION AG, priority 2022, published 2025):
Like-named read-outs stand apart in the source and are kept apart here.

Tested on: Spodoptera littoralis (Egyptian cotton leaf worm)
Experiment: Spodoptera littoralis (Egyptian cotton leaf worm) feeding/contact activity assay, mortality on cotton leaf discs; synergy by COLBY formula
Format: in vivo
Source text: A synergistic effect exists whenever the action of an active ingredient combination is greater than the sum of the actions of the individual components. The action to be expected E for a given active ingredient combination obeys the so-called COLBY formula and can be calculated as follows (COLBY, S.R. “Calculating synergistic and antagonistic responses of herbicide combination”. Weeds, Vol. 15, pages 20-22 1967): • ppm=milligrams of active ingredient (a.i.) per liter • X=% action by first active ingredient using p ppm of the active ingredient • Y=% action by second active ingredient using q ppm of the active ingredient.
According to Colby, the expected (additive) action of active ingredients A+B using p+q ppm of active
If the action actually observed O is greater than the expected action E, then the action of the combination is super-additive, i.e. there is a synergistic effect. In mathematical terms, synergism corresponds to a positive value for the difference of (O-E). In the case of purely complementary addition of activities (expected activity), said difference (O-E) is zero. A negative value of said difference (O-E) signals a loss of activity compared to the expected activity.
The synergistic biological activity of combinations of component (A) and component (B) as disclosed herein was assessed using a Spodoptera littoralis (Egyptian cotton leaf worm) feeding/contact activity assay. Cotton leaf discs were placed onto agar in 24-well microtiter plates and sprayed with aqueous test solutions prepared from 10′000 ppm DMSO stock solutions. After drying the leaf discs were infested with L1 larvae. The samples were assessed for mortality 3 days after infestation.

[1] = Spodoptera littoralis, foliar, 72 h, read-out: Mortality (%) Observed (%)
[2] = single component alone at 7.8125 mg/L, 3 days after infestation
[3] = single component alone at 15.625 mg/L, 3 days after infestation
[4] = single component alone at 1.95312 mg/L, 3 days after infestation
[5] = single component alone at 3.90625 mg/L, 3 days after infestation
[6] = single component alone at 31.25 mg/L, 3 days after infestation
[7] = single component alone at 62.5 mg/L, 3 days after infestation
[8] = single component alone at 125 mg/L, 3 days after infestation
[9] = single component alone at 250 mg/L, 3 days after infestation

CCC(=O)NCc1ccc(C2=NO[C@@](c3cc(Cl)c(F)c(Cl)c3)(C(F)(F)F)C2)c2c1OCC2 [A-1, N-[[4-[(5S)-5-(3,5-dichloro-4-fluorophenyl)-5-(trifluoromethyl)-4H-isoxazol-3-yl]-2,3-dihydrobenzofuran-7-yl]methyl]propanamide]
100%: mortality at 0.125 µg/mL [1]
80%: mortality at 0.0625 µg/mL [1]
0%: mortality at 0.0078125 µg/mL [1] | mortality at 0.015625 µg/mL [1] | mortality at 0.03125 µg/mL [1]

CC1(NC(=O)c2cccc3nn(-c4cccnc4)cc23)CC1 [B-4, indazapyroxamet]
0%: Mortality (%) Observed (%) [2] | Mortality (%) Observed (%) [3]

C[n+]1c([O-])c(-c2ccccc2)c(=O)n2c1SC[C@@H]2c1cnc(Cl)s1 [B-5, fenmezoditiaz]
0%: Mortality (%) Observed (%) (single component alone at 0.488281 mg/L, 3 days after infestation) | Mortality (%) Observed (%) (single component alone at 0.976562 mg/L, 3 days after infestation) | Mortality (%) Observed (%) [4] | Mortality (%) Observed (%) [5] | Mortality (%) Observed (%) [2]

CCS(=O)(=O)c1cccnc1-c1cnc(OCC(F)(F)C(F)(F)F)cn1 [B-17, 2-(3-ethylsulfonyl-2-pyridyl)-5-(2,2,3,3,3-pentafluoropropoxy)pyrazine]
0%: mortality at 0.0390625 µg/mL (Spodoptera littoralis, foliar, 72 h, single component alone at 0.0390625 mg/L, 3 days after infestation, read-out: Mortality (%) Observed (%)) | mortality at 0.078125 µg/mL (Spodoptera littoralis, foliar, 72 h, single component alone at 0.078125 mg/L, 3 days after infestation, read-out: Mortality (%) Observed (%)) | mortality at 0.15625 µg/mL (Spodoptera littoralis, foliar, 72 h, single component alone at 0.15625 mg/L, 3 days after infestation, read-out: Mortality (%) Observed (%)) | mortality at 0.3125 µg/mL (Spodoptera littoralis, foliar, 72 h, single component alone at 0.3125 mg/L, 3 days after infestation, read-out: Mortality (%) Observed (%)) | mortality at 0.625 µg/mL (Spodoptera littoralis, foliar, 72 h, single component alone at 0.625 mg/L, 3 days after infestation, read-out: Mortality (%) Observed (%)) | mortality at 1.25 µg/mL (Spodoptera littoralis, foliar, 72 h, single component alone at 1.25 mg/L, 3 days after infestation, read-out: Mortality (%) Observed (%))
20%: mortality at 2.5 µg/mL (Spodoptera littoralis, foliar, 72 h, single component alone at 2.5 mg/L, 3 days after infestation, read-out: Mortality (%) Observed (%))

CN/C(=N\[N+](=O)[O-])NCc1cnc(Cl)s1 [B-38, clothianidin]
0%: mortality at 0.15625 µg/mL [1] | mortality at 0.3125 µg/mL [1] | mortality at 0.625 µg/mL [1] | mortality at 1.25 µg/mL [1] | mortality at 2.5 µg/mL [1]

CNC(=O)c1cc(Cl)cc(C)c1NC(=O)c1cc(Br)nn1-c1ncccc1Cl [B-43, chlorantraniliprole]
0%: mortality at 0.00390625 µg/mL [1] | mortality at 0.0078125 µg/mL [1] | mortality at 0.015625 µg/mL [1] | mortality at 0.03125 µg/mL [1] | mortality at 0.0625 µg/mL [1] | mortality at 0.125 µg/mL [1]

CC1(C)C(C=C(Cl)Cl)C1C(=O)OC(C#N)c1cccc(Oc2ccccc2)c1 (stereo not drawn) [B-46, alpha-cypermethrin]
0%: mortality at 0.015625 µg/mL [1] | mortality at 0.03125 µg/mL [1] | mortality at 0.0625 µg/mL [1] | mortality at 0.125 µg/mL [1] | mortality at 0.25 µg/mL [1]
60%: mortality at 0.5 µg/mL [1]

CCN(C(=O)c1cnn(C(C)C(C)C)c1C)c1ccnnc1 (stereo not shown) [B-133, dimpropyridaz]
0%: Mortality (%) Observed (%) [3] | Mortality (%) Observed (%) [6] | Mortality (%) Observed (%) [7] | Mortality (%) Observed (%) [8] | Mortality (%) Observed (%) [9]

C[C@]1(COC(=O)C2CC2)[C@@H]2C[C@H](O)[C@@]3(C)Oc4cc(-c5cccnc5)oc(=O)c4[C@H](O)[C@@H]3[C@@]2(C)CC[C@@H]1OC(=O)C1CC1 [B-134, afidopyropen]
0%: Mortality (%) Observed (%) [4] | Mortality (%) Observed (%) [5] | Mortality (%) Observed (%) [2] | Mortality (%) Observed (%) [3] | Mortality (%) Observed (%) [6] | Mortality (%) Observed (%) [7] | Mortality (%) Observed (%) [8] | Mortality (%) Observed (%) [9]
